Measured values from PubChem BioAssay (NCI).
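GI50 = concentration required for 50% inhibition of growth. TGI: concentration producing complete growth inhibition.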

Tests used:
Test in all cases: DTP human tumour cell line panel, 384-well format
SW-620 colon = test system: SW-620 colon
NCI-H322M lung = test system: NCI-H322M lung
A549 NSCLC = test system: A549 NSCLC
SNB-19 CNS = test system: SNB-19 CNS
OVCAR-3 ovarian = test system: OVCAR-3 ovarian
HOP-92 NSCLC = test system: HOP-92 NSCLC
HS 578T breast = test system: HS 578T breast
OVCAR-5 ovarian = test system: OVCAR-5 ovarian
786-0 renal = test system: 786-0 renal
MDA-MB-468 breast = test system: MDA-MB-468 breast
SN12C renal = test system: SN12C renal
PC-3 prostate = test system: PC-3 prostate
SF-268 CNS = test system: SF-268 CNS
HCT-116 colon = test system: HCT-116 colon
TK-10 renal = test system: TK-10 renal
MDA-MB-435 melanoma = test system: MDA-MB-435 melanoma
T-47D breast = test system: T-47D breast
MCF7 breast = test system: MCF7 breast
HT29 colon = test system: HT29 colon
UO-31 renal = test system: UO-31 renal
OVCAR-4 ovarian = test system: OVCAR-4 ovarian
KM12 colon = test system: KM12 colon
RXF 393 renal = test system: RXF 393 renal
CAKI-1 renal = test system: CAKI-1 renal
UACC-62 melanoma = test system: UACC-62 melanoma
SF-539 CNS = test system: SF-539 CNS
OVCAR-8 ovarian = test system: OVCAR-8 ovarian
UACC-257 melanoma = test system: UACC-257 melanoma
MOLT-4 leukemia = test system: MOLT-4 leukemia
NCI-H226 lung = test system: NCI-H226 lung
K-562 leukemia = test system: K-562 leukemia
ACHN renal = test system: ACHN renal
M14 melanoma = test system: M14 melanoma
SF-295 CNS = test system: SF-295 CNS
SK-OV-3 ovarian = test system: SK-OV-3 ovarian
A498 renal = test system: A498 renal
SR leukemia = test system: SR leukemia
BT-549 breast = test system: BT-549 breast
COLO 205 colon = test system: COLO 205 colon
SNB-75 CNS = test system: SNB-75 CNS
SK-MEL-2 melanoma = test system: SK-MEL-2 melanoma
NCI-H23 lung = test system: NCI-H23 lung
DU-145 prostate = test system: DU-145 prostate
HOP-62 NSCLC = test system: HOP-62 NSCLC
NCI-H522 lung = test system: NCI-H522 lung
HL-60(TB) leukemia = test system: HL-60(TB) leukemia
MDA-MB-231 breast = test system: MDA-MB-231 breast
MALME-3M melanoma = test system: MALME-3M melanoma
HCT-15 colon = test system: HCT-15 colon
SK-MEL-5 melanoma = test system: SK-MEL-5 melanoma
U251 glioblastoma = test system: U251 glioblastoma
EKVX NSCLC = test system: EKVX NSCLC
NCI-H460 NSCLC = test system: NCI-H460 NSCLC
SK-MEL-28 melanoma = test system: SK-MEL-28 melanoma
IGROV1 ovarian = test system: IGROV1 ovarian

Cc1cc(C)c(CNC(=O)c2cc(Cl)c3c(c2C)O[C@@](C)(C2CCC(N(C)C)CC2)O3)c(=O)[nH]1 (stereo not given in full)
GI50 (SW-620 colon): > 100 µM
TGI (SW-620 colon): > 100 µM
GI50 (NCI-H322M lung): > 100 µM
TGI (NCI-H322M lung): > 100 µM
GI50 (A549 NSCLC): 76.2 µM
TGI (A549 NSCLC): > 100 µM
GI50 (SNB-19 CNS): > 100 µM
TGI (SNB-19 CNS): > 100 µM
GI50 (OVCAR-3 ovarian): 72 µM
TGI (OVCAR-3 ovarian): > 100 µM
GI50 (HOP-92 NSCLC): 40 µM
TGI (HOP-92 NSCLC): > 100 µM
GI50 (HS 578T breast): 13.8 µM
TGI (HS 578T breast): 32.7 µM
GI50 (OVCAR-5 ovarian): > 100 µM
TGI (OVCAR-5 ovarian): > 100 µM
GI50 ([…]-0 renal): 16.1 µM
TGI (786-0 renal): 32 µM
GI50 (MDA-MB-468 breast): 24.9 µM
TGI (MDA-MB-468 breast): 73.2 µM
GI50 (SN12C renal): 76.6 µM
TGI (SN12C renal): > 100 µM
GI50 (PC-3 prostate): 56.3 µM
TGI (PC-3 prostate): > 100 µM
GI50 (SF-268 CNS): 45.4 µM
TGI (SF-268 CNS): > 100 µM
GI50 (HCT-116 colon): 38.6 µM
TGI (HCT-116 colon): > 100 µM
GI50 (TK-10 renal): 33.4 µM
TGI (TK-10 renal): > 100 µM
GI50 (MDA-MB-435 melanoma): 73.4 µM
TGI (MDA-MB-435 melanoma): > 100 µM
GI50 (T-47D breast): > 100 µM
TGI (T-47D breast): > 100 µM
GI50 (MCF7 breast): 44.9 µM
TGI (MCF7 breast): > 100 µM
GI50 (HT29 colon): 21.3 µM
TGI (HT29 colon): 48.7 µM
GI50 (UO-31 renal): 63.1 µM
TGI (UO-31 renal): > 100 µM
GI50 (OVCAR-4 ovarian): > 100 µM
TGI (OVCAR-4 ovarian): > 100 µM
GI50 (KM12 colon): 59.4 µM
TGI (KM12 colon): > 100 µM
GI50 (RXF 393 renal): 7.55 µM
TGI (RXF 393 renal): 21.2 µM
GI50 (CAKI-1 renal): 19.1 µM
TGI (CAKI-1 renal): 39.2 µM
GI50 (UACC-62 melanoma): 32.6 µM
TGI (UACC-62 melanoma): > 100 µM
GI50 (SF-539 CNS): 35 µM
TGI (SF-539 CNS): > 100 µM
GI50 (OVCAR-8 ovarian): > 100 µM
TGI (OVCAR-8 ovarian): > 100 µM
GI50 (UACC-257 melanoma): 22.7 µM
TGI (UACC-257 melanoma): 51.8 µM
GI50 (MOLT-4 leukemia): 29.2 µM
TGI (MOLT-4 leukemia): 77.5 µM
GI50 (NCI-H226 lung): 44.3 µM
TGI (NCI-H226 lung): > 100 µM
GI50 (K-562 leukemia): 14.9 µM
TGI (K-562 leukemia): 30.5 µM
GI50 (ACHN renal): > 100 µM
TGI (ACHN renal): > 100 µM
GI50 (M14 melanoma): 38.2 µM
TGI (M14 melanoma): > 100 µM
GI50 (SF-295 CNS): 35.1 µM
TGI (SF-295 CNS): > 100 µM
GI50 (SK-OV-3 ovarian): > 100 µM
TGI (SK-OV-3 ovarian): > 100 µM
GI50 (A498 renal): 20.4 µM
TGI (A498 renal): 37.1 µM
GI50 (SR leukemia): 19.8 µM
TGI (SR leukemia): 34.1 µM
GI50 (BT-549 breast): 19 µM
TGI (BT-549 breast): 45 µM
GI50 (COLO 205 colon): > 100 µM
TGI (COLO 205 colon): > 100 µM
GI50 (SNB-75 CNS): 18.6 µM
TGI (SNB-75 CNS): 60.3 µM
GI50 (SK-MEL-2 melanoma): 17.4 µM
TGI (SK-MEL-2 melanoma): 45.6 µM
GI50 (NCI-H23 lung): 46.8 µM
TGI (NCI-H23 lung): > 100 µM
GI50 (DU-145 prostate): 81.1 µM
TGI (DU-145 prostate): > 100 µM
GI50 (HOP-62 NSCLC): > 100 µM
TGI (HOP-62 NSCLC): > 100 µM
GI50 (NCI-H522 lung): > 100 µM
TGI (NCI-H522 lung): > 100 µM
GI50 (HL-60(TB) leukemia): 15.4 µM
TGI (HL-60(TB) leukemia): 37.6 µM
GI50 (MDA-MB-231 breast): > 100 µM
TGI (MDA-MB-231 breast): > 100 µM
GI50 (MALME-3M melanoma): 25.1 µM
TGI (MALME-3M melanoma): 56.9 µM
GI50 (HCT-15 colon): 71.1 µM
TGI (HCT-15 colon): > 100 µM
GI50 (SK-MEL-5 melanoma): 17.6 µM
TGI (SK-MEL-5 melanoma): 37.2 µM
GI50 (U251 glioblastoma): 72.9 µM
TGI (U251 glioblastoma): > 100 µM
GI50 (EKVX NSCLC): 48.9 µM
TGI (EKVX NSCLC): > 100 µM
GI50 (NCI-H460 NSCLC): 37.2 µM
TGI (NCI-H460 NSCLC): > 100 µM
GI50 (SK-MEL-28 melanoma): 83 µM
TGI (SK-MEL-28 melanoma): > 100 µM
GI50 (IGROV1 ovarian): 51 µM
TGI (IGROV1 ovarian): > 100 µM
